# Settings: in vivo
# Description: Progesterone content in the plasma was determined by direct radio immuno assay (Coat-a-Count, DPC, USA).
substance,measurement,value
poly (ε-caprolactone),Time to return to undetectable basal plasma progesterone levels after insert removal,≤ 24 h
